Measured values from patent publication US20260166097A1, “METHODS AND COMPOSITIONS CONCERNING BACTEROIDES OVATUS” (BOARD OF REGENTS, THE UNIVERSITY OF TEXAS SYSTEM, priority 2022, published 2026).

Legend:
steroid-refractory GVHD = settings: human, in vivo
From the text: The inventors examined patient antibiotic treatment histories during the period from allo-HSCT to the onset of aGI-GVHD and looked for associations between treatment with various antibiotic classes and steroid response for GVHD (FIG. 3A). In our institution, quinolone, cephalosporine, carbapenem and intravenous vancomycin were frequently used in our cohort (FIG. 3B).
A total of 37 aGI-GVHD patients who underwent allo-HSCT during 2017 to 2019 at MD Anderson Cancer Center provided stool samples for the biorepository, and these patient stool samples were analyzed retrospectively as a discovery cohort. Acute GVHD was diagnosed by clinical and/or pathological findings and graded according to standard criteria^40. […] The inventors determined treatment response as previously reported^19: briefly, a lack of response on the basis of organ assessment after at least 3 days of high-dose systemic glucocorticoid therapy; a lack of improvement after 7 days; or treatment failure during steroid tapering or an inability to taper the dose to <0.5 mg/kg/day of methylprednisolone. […] As another cohort, a total of 16 aGI-GVHD patients who underwent allo-HSCT during 2017 to 2020 at MD Anderson Cancer Center provided stool samples collected on day 14 after allo-HSCT for the biorepository, and these patient stool samples were analyzed retrospectively. […]

allo-HSCT mice = settings: cited from earlier work

## CCCCCCCCCC(=O)N[C@@H](Cc1c[nH]c2ccccc12)C(=O)N[C@H](CC(N)=O)C(=O)N[C@@H](CC(=O)O)C(=O)N[C@@H]1C(=O)NCC(=O)N[C@@H](CCCN)C(=O)N[C@@H](CC(=O)O)C(=O)N[C@H](C)C(=O)N[C@@H](CC(=O)O)C(=O)NCC(=O)N[C@H](CO)C(=O)N[C@@H]([C@H](C)CC(=O)O)C(=O)N[C@@H](CC(=O)c2ccccc2N)C(=O)O[C@@H]1C [daptomycin]
steroid-refractory GVHD
  Association of antibiotic exposure with steroid-refractory GVHD: significantly associated with steroid-refractory GVHD

## C[C@@H](O)[C@H]1C(=O)N2C(C(=O)O)=C(S[C@@H]3CN[C@H](C(=O)N(C)C)C3)[C@H](C)[C@H]12 [meropenem]
allo-HSCT mice; allo-HSCT mice treated with meropenem in drinking water compared to mice not treated
  Colonic GVHD severity: aggravated colonic GVHD

## O=C[C@H](O)[C@@H](O)[C@H](O)CO [xylose]
allo-HSCT mice; supplementation in meropenem-treated allogeneic mice
  GVHD severity: ameliorates GVHD severity
